Bases are written 5' to 3'; sugars and linkages follow in the same order, as letters with counts (s phosphorothioate, o phosphodiester; PS: all linkages phosphorothioate). C may stand for cytosine or 5-methylcytosine; the collection does not tell. l = locked nucleic acid (LNA); d = 2'-deoxy (DNA)
Molecular target: HIF1A
Test: HeLa, 100 nM transfected, 24 h, mean of 3
Settings: ASO

First: TGGCAAGCATCCTGTA (sugars l2 d2 l1 d10 l1, PS)
Second: TGGCAAGCATCCTGTA (sugars l1 d3 l1 d9 l2, PS)
The caspase activation (% of PBS control) of the first is higher: 423 for the first, 135 for the second.

Going from “TGGCAAGCATCCTGTA (sugars ldldlddddddddddl, PS)” to “TGGCAAGCATCCTGTA (sugars l1 d1 l3 d7 l4, PS)”, the caspase activation (% of PBS control) rises from 204 to 395.

First: GCAAGCATCCTGT (sugars l3 d7 l1 d1 l1, PS)
Second: TGGCAAGCATCCTGTA (sugars l4 d7 l2 d2 l1, PS)
The caspase activation (% of PBS control) of the first is lower: 426 for the first, 528 for the second.

First: TGGCAAGCATCCTGTA (sugars l1 d1 l2 d9 l3, PS)
Second: GTTACTGCCTTCTTAC (sugars l4 d11 l1, PS)
The caspase activation (% of PBS control) of the first is higher: 479 for the first, 159 for the second.

Compared with “GTTACTGCCTTCTTAC (sugars lldllddddddldddl, PS)”, GTTACTGCCTTCT (sugars l1 d9 l3, PS) is lower in caspase activation (% of PBS control): 260 for the first, 171 for the second.

Compared with TACTGCCTTCTTA (sugars l1 d11 l1, PS), “GTTACTGCCTTCTTAC (sugars l5 d6 l1 d2 l2, PS)” is higher in caspase activation (% of PBS control): 112 for the first, 442 for the second.

Going from “TGGCAAGCATCCTGTA (sugars l1 d1 l1 d8 l5, PS)” to “GTTACTGCCTTCTTAC (sugars l1 d11 l1 d2 l1, PS)”, the caspase activation (% of PBS control) falls from 417 to 115.

Compared with “GTTACTGCCTTCTTAC (sugars l3 d8 l2 d2 l1, PS)”, CAAGCATCCTGTA (sugars l2 d9 l2, PS) is lower in caspase activation (% of PBS control): 273 for the first, 189 for the second.

Going from GTTACTGCCTTCT (sugars l1 d10 l2, PS) to “GTTACTGCCTTCTTAC (sugars l1 d1 l1 d8 l5, PS)”, the caspase activation (% of PBS control) rises from 127 to 298.

Compared with “GGCAAGCATCCTG (sugars l1 d9 l1 d1 l1, PS)”, “GTTACTGCCTTCTTAC (sugars lddldddddddldddl, PS)” is lower in caspase activation (% of PBS control): 390 for the first, 88.6 for the second.

First: GTTACTGCCTTCTTAC (sugars l5 d6 l1 d3 l1, PS)
Second: TGGCAAGCATCCTGTA (sugars l5 d8 l3, PS)
The caspase activation (% of PBS control) of the first is higher: 454 for the first, 360 for the second.

Compared with “TGGCAAGCATCCTGTA (sugars lldllddddddlddll, PS)”, “GGCAAGCATCCTG (sugars l2 d8 l1 d1 l1, PS)” is lower in caspase activation (% of PBS control): 475 for the first, 327 for the second.

First: GTTACTGCCTTCTTAC (sugars lddlddddddddldll, PS)
Second: GTTACTGCCTTCTTAC (sugars l1 d11 l2 d1 l1, PS)
The caspase activation (% of PBS control) of the first is lower: 130 for the first, 137 for the second.

First: TGGCAAGCATCCTGTA (sugars ldldddddddddlldl, PS)
Second: TACTGCCTTCTTA (sugars l4 d6 l1 d1 l1, PS)
The caspase activation (% of PBS control) of the first is lower: 281 for the first, 508 for the second.

First: CAAGCATCCTGTA (sugars l4 d6 l3, PS)
Second: TACTGCCTTCTTA (sugars ldllddddddldl, PS)
The caspase activation (% of PBS control) of the first is lower: 171 for the first, 317 for the second.

Compared with “GTTACTGCCTTCTTAC (sugars lldllddddddddldl, PS)”, “GTTACTGCCTTCTTAC (sugars l1 d2 l2 d10 l1, PS)” is lower in caspase activation (% of PBS control): 291 for the first, 185 for the second.

First: TGGCAAGCATCCT (sugars l1 d1 l2 d7 l2, PS)
Second: GCAAGCATCCTGT (sugars l1 d1 l1 d9 l1, PS)
The caspase activation (% of PBS control) of the first is higher: 353 for the first, 165 for the second.

Going from “TGGCAAGCATCCTGTA (sugars lddllddddddldldl, PS)” to GTTACTGCCTTCT (sugars l2 d8 l3, PS), the caspase activation (% of PBS control) falls from 402 to 168.

Going from “TGGCAAGCATCCTGTA (sugars llddlddddddllddl, PS)” to “TGGCAAGCATCCTGTA (sugars l5 d6 l1 d2 l2, PS)”, the caspase activation (% of PBS control) rises from 385 to 399.

Compared with “GCAAGCATCCTGT (sugars lldlddddddldl, PS)”, “TGGCAAGCATCCTGTA (sugars l3 d8 l1 d1 l3, PS)” is higher in caspase activation (% of PBS control): 209 for the first, 477 for the second.

From the OligoGym collection
